From US20250092043A1, “Kinase Inhibitors and Degraders” (Incyte Corporation, priority 2023, published 2025)

Biological target: T1, JAK2 (Homo sapiens, UniProt O60674, V617F)
T1 construct: their effect on JAK2 protein degradation in SET2 cells; host or cells: SET2 cells (human essential thrombocythemia)
Experiment: Western blot quantitation of JAK2 degradation in SET2 cells
Assay type: cell-based
Settings: 8 hours treatment, western blot densitometry vs. DMSO vehicle
Protocol: Example E. Western Blot Analysis of JAK2 Dependent SET2 Cells Treated with Compounds of the Present Disclosure
SET2 cells (DSMZ, catalog number ACC 608) are isolated from a person with human essential thrombocythemia and carry the JAK2 V617F mutation.
SET2 cells were cultured in RPMI culture medium (Gibco, catalog number 11875085) supplemented with 1% penicillin-streptomycin-glutamine (Thermo Fisher Scientific, catalog number 10378016) and 20% fetal bovine serum (Gibco, catalog number 10438034). Cultured cells were maintained at 37° C., 5% CO2 in the incubator.
Approximately 1,000,000 cells/well were added in 6-well plate containing 1.5 ml culture media with specified concentrations of compounds of the present disclosure or DMSO control. Cells were treated with concentrations of 10 uM, 5 uM, 1 uM, and 0.5 uM. Proteasome inhibitor MG-132 (Cell signaling, catalog number 2194) was added at 20 uM to an additional 10 uM compound treatment. The treatment period was 8 hours. After 8 hours, cells were collected in 1.5 mL microcentrifuge tubes. Tubes were centrifuged at 1500 rpm for 5 min. Supernatant was aspirated and samples were washed with 1 mL of cold PBS. The samples were centrifuged again at 1500 rpm for 5 min, supernatant was aspirated. The sample pellets were lysed using 150 μL of 1× lysing buffer (Cell Signaling Technologies—catalog number 9803S) supplemented with 1× Halt™ Protease and Phosphatase Inhibitor Cocktail (Thermo Fisher Scientific—catalog number 78447). Using Pierce™ BCA Protein Assay Kit (Thermo Fisher Scientific—catalog number 23225), protein concentration of the samples were quantitated. After normalizing sample concentration to approximately 20 ug/well, samples were loaded onto 4-12% Tris-glycine gels. Gels were transferred to nitrocellulose membranes using iBlot 2 Dry Blotting System and iBlot™ 2 Transfer Stacks, nitrocellulose (Thermo Fisher Scientific—catalog number IB23001). Following transfer, membranes were blocked with StartingBlock (Thermo Fisher Scientific—catalog number 37543). After 1 hour of blocking membranes, they were probed for JAK2, pSTAT5, STAT5, CRBN, and GAPDH (Cell Signaling—catalog numbers 3230, 4322, 25656, 71810, and 5174 respectively).
Compounds of the present disclosure were screened at various concentrations to determine their effect on JAK2 protein degradation in SET2 cells, using methods as described above. DMSO was used as the vehicle control with no PROTAC® added. Co-administration of 20 μM of the proteasome inhibitor MG-132 with the PROTAC® compound at its highest concentration (i.e., 5 or 10 μM) tested was conducted to support the hypothesis that the degradation was driven by the ubiquitin-proteosome system (UPS). Degradation was evaluated by western blot densitometry quantitation using the FluorChem M instrument software to analyze the intensity of the JAK2 band signal at various concentrations of PROTAC® compound vs. the JAK2 band signal of the DMSO vehicle. It is noted that ˜82% of JAK2 exists as the V617F mutant, with the remaining 18% of JAK2 being WT. Therefore, if the V617F mutant JAK2 is selectively degraded over the WT, the maximum degradation is ˜80%. Degradation was graded as A: […]; B: ≥40% to <60% degradation; C: ≥20% to <40% degradation, D: <20% to ≥10%; E<10%. ** refers to degradation at 0.5 μM.

T1 sequence (O60674 whole entry V617F): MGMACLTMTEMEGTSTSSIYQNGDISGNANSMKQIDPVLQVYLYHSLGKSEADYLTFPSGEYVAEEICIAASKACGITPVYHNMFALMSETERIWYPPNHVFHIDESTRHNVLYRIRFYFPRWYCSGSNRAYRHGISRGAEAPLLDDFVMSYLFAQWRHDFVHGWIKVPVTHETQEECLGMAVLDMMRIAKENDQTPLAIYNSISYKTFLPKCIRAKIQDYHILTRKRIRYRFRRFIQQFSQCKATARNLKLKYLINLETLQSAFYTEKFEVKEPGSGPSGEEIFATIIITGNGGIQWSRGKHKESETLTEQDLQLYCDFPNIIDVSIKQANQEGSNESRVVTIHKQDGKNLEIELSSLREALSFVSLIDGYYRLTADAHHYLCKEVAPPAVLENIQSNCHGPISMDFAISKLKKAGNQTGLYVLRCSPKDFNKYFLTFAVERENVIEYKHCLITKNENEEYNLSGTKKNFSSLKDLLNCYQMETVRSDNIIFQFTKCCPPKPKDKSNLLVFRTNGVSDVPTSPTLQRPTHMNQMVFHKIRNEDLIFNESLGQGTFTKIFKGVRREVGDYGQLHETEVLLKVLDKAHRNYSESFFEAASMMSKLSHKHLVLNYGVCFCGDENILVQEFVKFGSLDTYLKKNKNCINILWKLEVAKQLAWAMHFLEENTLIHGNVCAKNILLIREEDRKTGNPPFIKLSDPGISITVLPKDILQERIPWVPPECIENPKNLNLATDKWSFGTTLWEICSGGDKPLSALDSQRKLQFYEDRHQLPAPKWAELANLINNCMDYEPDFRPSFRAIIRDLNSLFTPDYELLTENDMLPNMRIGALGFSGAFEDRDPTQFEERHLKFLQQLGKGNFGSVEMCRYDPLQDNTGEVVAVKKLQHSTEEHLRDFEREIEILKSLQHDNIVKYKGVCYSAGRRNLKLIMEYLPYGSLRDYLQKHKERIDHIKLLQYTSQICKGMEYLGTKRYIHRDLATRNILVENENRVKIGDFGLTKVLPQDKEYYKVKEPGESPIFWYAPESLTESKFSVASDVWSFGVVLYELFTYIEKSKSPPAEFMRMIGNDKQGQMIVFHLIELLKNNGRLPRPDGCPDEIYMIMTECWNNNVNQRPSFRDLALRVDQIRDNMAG

Row | JAK2 % Degradation in SET2 (10 μM compound) | JAK2 % Degradation in SET2 (5 μM compound) | Compound | also measured
1 |  | C (C: ≥20% to <40% degradation) | COC(=O)N[C@@H]1CC[C@@H](n2c(=O)n(C)c3cnc4[nH]c(-c5ccc(CN6CCC(CN7CCN(c8cccc9c8C(=O)N(C8CCC(=O)NC8=O)C9=O)CC7)CC6)cc5)c(-c5ccc6c(cnn6C(C)C)c5)c4c32)C1 (stereo partly drawn) [Example 44, Methyl((1R,3R)-3-(7-(4-((4-((4-(2-(2,6-dioxopiperidin-3-yl)-1,3-dioxoisoindolin-4-yl)piperazin-1-yl)methyl)piperidin-1-yl)methyl)phenyl)-8-(1-isopropyl-1H-indazol-5-yl)-3-methyl-2-oxo-3,6-dihydroimidazo[4,5-d]pyrrolo[2,3-b]pyridin-1(2H)-yl)cyclopentyl)carbamate] | 
2 |  | C (C: ≥20% to <40% degradation) | COC(=O)N[C@@H]1CC[C@@H](n2c(=O)n(C)c3cnc4[nH]c(-c5ccc(C(=O)N6CCC(C(=O)N7CCN(c8cccc9c8C(=O)N(C8CCC(=O)NC8=O)C9=O)CC7)CC6)cc5)c(-c5ccc6c(cnn6C(C)C)c5)c4c32)C1 (stereo partly drawn) [Example 37, methyl ((1R,3R)-3-(7-(4-(4-(4-(2-(2,6-dioxopiperidin-3-yl)-1,3-dioxoisoindolin-4-yl)piperazine-1-carbonyl)piperidine-1-carbonyl)phenyl)-8-(1-isopropyl-1H-indazol-5-yl)-3-methyl-2-oxo-3,6-dihydroimidazo[4,5-d]pyrrolo[2,3-b]pyridin-1(2H)-yl)cyclopentyl) carbamate] | 

Continued, compound first:

Row | Compound | JAK2 % Degradation in SET2 (10 μM compound) | JAK2 % Degradation in SET2 (5 μM compound) | also measured
3 | COC(=O)N[C@@H]1CC[C@@H](n2c(=O)n(C)c3cnc4[nH]c(-c5ccc(C(=O)N(C)CCOCC(=O)Nc6ccc7c(c6)CN(C6CCC(=O)NC6=O)C7=O)c(F)c5)c(-c5ccc6c(cnn6C(C)C)c5)c4c32)C1 (stereo partly drawn) [Example 27, methyl ((1R,3R)-3-(7-(4-((2-(2-((2-(2,6-dioxopiperidin-3-yl)-1-oxoisoindolin-5-yl)amino)-2-oxoethoxy)ethyl)(methyl)carbamoyl)-3-fluorophenyl)-8-(1-isopropyl-1H-indazol-5-yl)-3-methyl-2-oxo-3,6-dihydroimidazo[4,5-d]pyrrolo[2,3-b]pyridin-1(2H)-yl)cyclopentyl) carbamate] | D (D: <20% to ≥10%) |  | 
4 | COC(=O)N[C@@H]1CC[C@@H](n2c(=O)n(C)c3cnc4[nH]c(-c5ccc(C(=O)NCCOCC(=O)Nc6ccc7c(c6)CN(C6CCC(=O)NC6=O)C7=O)c(F)c5)c(-c5ccc6c(cnn6C(C)C)c5)c4c32)C1 (stereo partly drawn) [Example 17, methyl ((1R,3R)-3-(7-(4-((2-(2-((2-(2,6-dioxopiperidin-3-yl)-1-oxoisoindolin-5-yl)amino)-2-oxoethoxy)ethyl)carbamoyl)-3-fluorophenyl)-8-(1-isopropyl-1H-indazol-5-yl)-3-methyl-2-oxo-3,6-dihydroimidazo[4,5-d]pyrrolo[2,3-b]pyridin-1(2H)-yl)cyclopentyl) carbamate] | E (E<10%) |  | 
5 | COC(=O)N[C@@H]1CC[C@@H](n2c(=O)n(C)c3cnc4[nH]c(-c5ccc(C(=O)N6CCC(CN7CCN(c8ccc9c(c8)C(=O)N(C8CCC(=O)NC8=O)C9=O)CC7)CC6)c(F)c5)c(-c5ccc6c(cnn6C(C)C)c5)c4c32)C1 (stereo partly drawn) [Example 32, methyl ((1R,3R)-3-(7-(4-(4-((4-(2-(2,6-dioxopiperidin-3-yl)-1,3-dioxoisoindolin-5-yl)piperazin-1-yl)methyl)piperidine-1-carbonyl)-3-fluorophenyl)-8-(1-isopropyl-1H-indazol-5-yl)-3-methyl-2-oxo-3,6-dihydroimidazo[4,5-d]pyrrolo[2,3-b]pyridin-1(2H)-yl)cyclopentyl) carbamate] |  |  | JAK2 % Degradation in SET2 (0.5 μM compound (cells marked **)): B** (B: ≥40% to <60% degradation)
